According to US10869864B2, “Combinations for the treatment of cancer” (IGNYTA, INC., priority 2015, dated 2020):

What was measured:
[1] = tested on: KM-12 TPM3-NTRK1 G595R cells; test: Tumor growth in athymic nu/nu mice implanted subcutaneously with KM-12 TPM3-NTRK1 G595R cells; assay type: in vivo; settings: for Average tumor volume / Percent tumor growth inhibition (% TGI): entrectinib 60 mg/kg, trametinib 1 mg/kg, p.o. q.d.
Protocol: Athymic nu/nu mice, 6-7 weeks old, female mice were implanted subcutaneously (right flank) with 2 million KM-12 TPM3-NTRK1 G595R cells/mouse. Animals were randomized once the mean tumor volume reached ˜150 mm^3.
Trametinib in vivo oral dosing solution was made by dissolving trametinib in a solution of DMSO (Lot #: SHBG1596V, D8418-100ML, Sigma), PEG 400 (Lot #: MKBX3961V, 202398-500G, Sigma), Tween 80 (Lot #: MKB58228V, P4780-100ML, Sigma) and water. The final concentration of trametinib was 0.1 mg/mL and the amounts of each component in the resulting solution were 3.3% DMSO, 16.7% PEG 400, 15% Tween 80 and 65% water, with the water being added just prior to dosing.
Athymic nu/nu female mice between 6-7 weeks of age were ordered from Charles River. Animals were allowed to acclimate 3 days prior to the start of the study (e.g., cell implantation). Animals were housed in irradiated, individual HEPA ventilated cages (Innocage® IVC, Innovive USA) on a 12-hour light-dark cycle at 68-79° F. and 30-70% humidity. Animals were provided with irradiated chow (Teklad 2920X) and acidified drinking water (Innovive) ad libitum as per the animal care and use protocol established at Explora Biolabs (Ignyta ACUP # EB15-050). Animals were identified by uniquely numbered ear-tags.
(§1) KM12 cells were cultured, harvested, and suspended in 1:1 FBS free culture media:martigel at a concentration of 10 million cells/mL. Cells were implanted under the skin on the right flank of each mouse on day 0. The implantation volume was 200 μL/mouse. Tumors grew until the mean tumor volume reached approximately 130 mm^3. On day 8 mice were randomized into 6 treatment groups (10 mice/group) and treatment began. […] The final treatment for all groups was administered on day 17, for a total of 10 doses. The final tumor and body weight measurements were taken on the final day of dosing, day 17.
(§2) Tumors measurements and body weights were collected 2×/week over the duration of the study. Tumor growth was assessed by caliper and tumor volumes were calculated using the equation (1). Animals with tumor volumes >2,000 mm^3 were removed from study. Volume (mm^3)=[length (mm)×width (mm)×width (mm)]/2 (1)
The percentage of tumor growth inhibition (% TGI) was calculated for each treatment group at each tumor measurement. The % TGI values were calculated using equation (2) below, where TVvehicle is the tumor volume for the vehicle-treated animals at a specified time point, TVinitial is the initial tumor volume at the start of the treatment and TVtreatment is the tumor volume of the treatment group at a specified end-point time. Differences in tumor volumes were assessed by ANOVA using GraphPad Prism (version 6.07, GraphPad Software, Inc.). % TGI=[(TVvehicle−TVtreatment)/(TVvehicle−TVinitial)]×100

[2] = Tolerability, body weight and toxicity in the KM-12 TPM3-NTRK1 G595R mouse study; settings: any animals receiving trametinib 1 mg/kg p.o. q.d.
Protocol: as §1, §2

[3] = day 8 after cell implantation (randomization, treatment began)
[4] = day 8 after cell implantation (treatment began)
[5] = day 17 after cell implantation (10 doses)
[6] = day 17 after cell implantation (final day, 10 doses)

Row | SMILES | tumor volume difference from vehicle, two-way ANOVA ([1]; by day 14, p<0.05) | Average tumor volume [1, 3] [mm^3] | Percent tumor growth inhibition (% TGI) [1, 4] [%] | Average tumor volume ([1]; day 11 after cell implantation) [mm^3] | Percent tumor growth inhibition (% TGI) ([1]; day 11 after cell implantation) [%] | Average tumor volume ([1]; day 14 after cell implantation) [mm^3] | Percent tumor growth inhibition (% TGI) ([1]; day 14 after cell implantation) [%] | Percent tumor growth inhibition (% TGI) [1, 5] [%] | Average tumor volume [1, 6] [mm^3] | tumor volume difference from vehicle, one-way ANOVA ([1]; days 14 and 17) | Toxicity (evaluated based on body weight loss) [2]
1 | CC(=O)Nc1cccc(-n2c(=O)n(C3CC3)c(=O)c3c(Nc4ccc(I)cc4F)n(C)c(=O)c(C)c32)c1 [Trametinib] | significantly different from vehicle | 146.7 | 100.0 | 254.8 | 51.5 | 373.1 | 70.0 | 76.7 | 544.9 | Differences were found | Toxicity was observed
2 | CN1CCN(c2ccc(C(=O)Nc3n[nH]c4ccc(Cc5cc(F)cc(F)c5)cc34)c(NC3CCOCC3)c2)CC1 [Entrectinib, N-[5-(3,5-difluorobenzyl)-1H-indazol-3-yl]-4-(4-methyl-piperazin-1-yl)-2-(tetrahydro-pyran-4-ylamino)-benzamide] |  | 148.2 | 100.0 | 403.2 | −15.1 | 934.5 | −4.5 | −11.6 | 2057.8 |  | 
